Results reported in the RepoRT retention time repository (doi:10.1016/j.scitotenv.2015.08.078).

Assay: RP, Waters ACQUITY UPLC BEH C18, 100 × 2.1 mm, 1.7 µm, 0.3 mL/min, estimated dead time 0.73 min; A: water + 0.1% formic acid, pH 3; B: methanol + 0.1% formic acid, pH 3; gradient (min/%B) 0/10 14/90 16/90 18/10
Conditions: stereoisomer not certain
With CCC(c1ccc(O)cc1)C(CC)c1ccc(O)cc1 (centres undefined) [Hexestrol] the LC retention time was 11.3 min.
Compound CCC(CC)Nc1c([N+](=O)[O-])cc(C)c(C)c1[N+](=O)[O-] [Pendimethalin] has an LC retention time of 14.2 min.
CCCCCc1cc(O)c2c(c1)OC(C)(C)C1CCC(C)=CC21 (centres undefined) [THC] gave an LC retention time of 15.2 min.
For COc1cc(OC)nc(NC(=O)NS(=O)(=O)c2ncccc2C(F)(F)F)n1 [Flazasulfuron], the LC retention time was 7.14 min.
Compound COCC(C)N(C(=O)CCl)c1c(C)csc1C (centres undefined) [Dimethenamid] has an LC retention time of 10.1 min.
Work on Cc1ccc(C(=CCN2CCCC2)c2ccccn2)cc1 [Triprolidine] yielded an LC retention time of 7.64 min.
In the case of CCS(=O)(=O)Cc1ccccc1OC(=O)NC [Ethiofencarb sulfone], the LC retention time is reported as 4.07 min.
In the case of CC(C)c1ccc(NC(=O)N(C)C)cc1 [Isoproturon], the LC retention time is reported as 9.6 min.
CC(C)(C)C(=O)C(Oc1ccc(Cl)cc1)n1cncn1 (centres undefined) [Triadimefon] gave an LC retention time of 10.6 min.
CCc1ccc(C(=O)NN(C(=O)c2cc(C)cc(C)c2)C(C)(C)C)cc1 [Tebufenozide] gave an LC retention time of 11.5 min.
With CCC(=O)Nc1ccc(Cl)c(Cl)c1 [Propanil] the LC retention time was 10.3 min.
Compound CCOc1ccc(C(C)(C)COCc2cccc(Oc3ccccc3)c2)cc1 [Ethofenprox] has an LC retention time of 15.1 min.
Work on CC1CCc2cc(F)cc3c(=O)c(C(=O)O)cn1c23 (centres undefined) [Flumequine] yielded an LC retention time of 7.49 min.
CC1CCCC(=O)CCCC=Cc2cc(O)cc(O)c2C(=O)O1 (centres undefined) [Zearalenone] showed an LC retention time of 10.5 min.
CCC(=O)OC1(C(=O)CCl)C(C)CC2C3CCC4=CC(=O)C=CC4(C)C3(F)C(O)CC21C (centres undefined) [Clobetasol propionate] gave an LC retention time of 11.4 min.
Work on CCC1OC(=O)CC(O)C(C)C(OC2OC(C)C(O)C(N(C)C)C2O)C(CCN2CC(C)CC(C)C2)CC(C)C(=O)C=CC(C)=CC1COC1OC(C)C(O)C(OC)C1OC (centres undefined) [Tilmicosin] yielded an LC retention time of 8.78 min.
In the case of CC=C(C(=CC)c1ccc(O)cc1)c1ccc(O)cc1 [Dienestrol], the LC retention time is reported as 11.1 min.
Work on CCCOP(=S)(OCCC)SCC(=O)N1CCCCC1C (centres undefined) [Piperophos] yielded an LC retention time of 12.3 min.
Compound COC(=O)C(C)N(C(=O)c1ccccc1)c1ccc(F)c(Cl)c1 (centres undefined) [Flamprop-methyl] has an LC retention time of 10.7 min.
For CNC(=O)N(C)c1nnc(C(C)(C)C)s1 [Tebuthiuron], the LC retention time was 7.79 min.
Compound CN(CC=CC#CC(C)(C)C)Cc1cccc2ccccc12 [Terbinafine] has an LC retention time of 13.7 min.
In the case of O=c1c2cc(F)ccc2nc(-n2cncn2)n1-c1ccc(Cl)cc1Cl [Fluquinconazole], the LC retention time is reported as 10.7 min.
CCOC(=O)CCN(Cc1ccccc1)SN(C)C(=O)ON=C(C)SC [Alanycarb] gave an LC retention time of 11.6 min.
Work on CCOc1ccc(NC(=O)OC(C)C)cc1OCC [Diethofencarb] yielded an LC retention time of 9.88 min.
Compound CCOP(=S)(OCC)Oc1cc(C)nc(C(C)C)n1 [Diazinon] has an LC retention time of 12.5 min.
In the case of CC1c2cccc(O)c2C(O)=C2C(=O)C3(O)C(O)=C(C(N)=O)C(=O)C(N(C)C)C3C(O)C21 (centres undefined) [Doxycycline], the LC retention time is reported as 7.42 min.
Compound CN(Cc1cc(Br)cc(Br)c1N)C1CCCCC1 [Bromhexine] has an LC retention time of 14.1 min.
For CCNc1nc(Cl)nc(NC(C)(C)C#N)n1 [Cyanazine], the LC retention time was 7.05 min.
C[Si](Cn1cncn1)(c1ccc(F)cc1)c1ccc(F)cc1 [Flusilazole] showed an LC retention time of 11.4 min.
CCC1OC(=O)C(C)C(OC2CC(C)(OC)C(O)C(C)O2)C(C)C(OC2OC(C)CC(N(C)C)C2O)C(C)(O)CC(C)CN(C)C(C)C(O)C1(C)O (centres undefined) [Azithromycin] gave an LC retention time of 6.2 min.
In the case of CCOP(=S)(OCC)Oc1nc(Cl)n(C(C)C)n1 [Isazophos], the LC retention time is reported as 10.8 min.
CCc1nn(C)c(C(=O)NCc2ccc(C(C)(C)C)cc2)c1Cl [Tebufenpyrad] gave an LC retention time of 13.2 min.
Work on CCCCCCCCn1sccc1=O [Octhilinone (2-Octyl-4-isothiazoline-3-one)] yielded an LC retention time of 11 min.
COC(=O)C1C(OC(=O)c2ccccc2)CC2CCC1N2C (centres undefined) [Cocaine] showed an LC retention time of 5.49 min.
O=C(NC(=O)c1c(F)cccc1F)Nc1ccc(OC(F)(F)C(F)OC(F)(F)F)c(Cl)c1 (centres undefined) [Novaluron] gave an LC retention time of 12.6 min.
Compound CCCN(CCC)c1c([N+](=O)[O-])cc(S(N)(=O)=O)cc1[N+](=O)[O-] [Oryzalin] has an LC retention time of 11.1 min.
In the case of Cc1ccccc1C(=O)Nc1cccc(OC(C)C)c1 [Mepronil], the LC retention time is reported as 10.4 min.
Compound CNC(=O)Oc1cccc2ccccc12 [Carbaryl] has an LC retention time of 7.91 min.
CC(C)(C)c1ccc(CSc2cnn(C(C)(C)C)c(=O)c2Cl)cc1 [Pyridaben] gave an LC retention time of 14 min.
With Cc1cccc2sc3nncn3c12 [Tricyclazole] the LC retention time was 6.05 min.
Work on CNc1nc(NC(C)C)nc(SC)n1 [Desmetryn] yielded an LC retention time of 8.78 min.
In the case of CCOC(=O)C(CCc1ccccc1)NC(C)C(=O)N1CCCC1C(=O)O (centres undefined) [Enalapril], the LC retention time is reported as 7.86 min.
With CN=C(NC#N)NCCSCc1nc[nH]c1C [Cimetidine] the LC retention time was 2.28 min.
In the case of COc1ccnc(CS(=O)c2nc3ccc(OC(F)F)cc3[nH]2)c1OC (centres undefined) [Pantoprazol], the LC retention time is reported as 7.67 min.
Compound CCC(C)C1OC2(C=CC1C)CC1CC(CC=C(C)C(OC3CC(OC)C(OC4CC(OC)C(O)C(C)O4)C(C)O3)C(C)C=CC=C3COC4C(O)C(C)=CC(C(=O)O1)C34O)O2 (centres undefined) [Abamectin B1a] has an LC retention time of 13.5 min.
With COc1ccc(C(CN(C)C)C2(O)CCCCC2)cc1 (centres undefined) [Venlafaxine] the LC retention time was 7.23 min.
Work on COC(=O)c1ccccc1S(=O)(=O)NC(=O)Nc1nc(C)nc(OC)n1 [Metsulfuron methyl] yielded an LC retention time of 5 min.
With OC(CCCN1CCN(c2ccccn2)CC1)c1ccc(F)cc1 (centres undefined) [Azaperol] the LC retention time was 4.96 min.
Nc1ccc(S(=O)(=O)c2ccc(N)cc2)cc1 [Dapsone] showed an LC retention time of 3.17 min.
With CCOC(=O)C(C)Oc1ccc(Oc2nc3ccc(Cl)cc3o2)cc1 (centres undefined) [Fenoxaprop-ethyl] the LC retention time was 12.7 min.
Work on COP(=S)(OC)Oc1ccc([N+](=O)[O-])cc1 [Parathion-methyl] yielded an LC retention time of 9.6 min.
Work on CC(C)(C)C(O)C(Oc1ccc(-c2ccccc2)cc1)n1cncn1 (centres undefined) [Bitertanol] yielded an LC retention time of 12 min.
For COC(=O)NC(=S)Nc1ccccc1NC(=S)NC(=O)OC [Thiophanate-methyl], the LC retention time was 7.2 min.
Work on COC(=O)c1cccc(C)c1S(=O)(=O)NC(=O)Nc1nc(OCC(F)(F)F)nc(N(C)C)n1 [Triflusulfuron-methyl] yielded an LC retention time of 9.27 min.
In the case of CC1(C)SC2C(NC(=O)C(N)c3ccc(O)cc3)C(=O)N2C1C(=O)O (centres undefined) [Amoxicillin], the LC retention time is reported as 4.61 min.
N#Cc1c[nH]cc1-c1cccc2c1OC(F)(F)O2 [Fludioxonil] showed an LC retention time of 10.1 min.
For CCOP(=S)(OCC)Oc1ccc(Cl)cc1Cl [Dichlofenthion], the LC retention time was 13.4 min.
CC(CN1c2ccccc2Sc2ccccc21)N(C)C (centres undefined) [Promethazine] showed an LC retention time of 9.06 min.
Compound CNC(=O)C=C(C)OP(=O)(OC)OC [Monocrotophos] has an LC retention time of 3.57 min.
With O=C1CN=C(c2ccccc2)c2cc(Cl)ccc2N1 [Nordiazepam] the LC retention time was 10.5 min.
Compound COC(=O)c1c(Cl)nn(C)c1S(=O)(=O)NC(=O)Nc1nc(OC)cc(OC)n1 [Halosulfuron methyl] has an LC retention time of 7.16 min.
CC(CCc1ccc(O)cc1)NCC(O)c1ccc(O)cc1 (centres undefined) [Ractopamine] gave an LC retention time of 4.5 min.
With COP(=O)(OC)OC1=C(Cl)C2C=CCC12 (centres undefined) [Heptenophos] the LC retention time was 9.33 min.
In the case of O=[N+]([O-])/N=C1\NCCN1Cc1ccc(Cl)nc1 [Imidacloprid], the LC retention time is reported as 4.63 min.
CN(C(=O)COc1nc2ccccc2s1)c1ccccc1 [Mefenacet] showed an LC retention time of 10.7 min.
Work on COC(=O)Nc1cccc(OC(=O)Nc2cccc(C)c2)c1 [Phenmedipham] yielded an LC retention time of 9.52 min.
In the case of CCn1cc(C(=O)O)c(=O)c2cc(F)c(N3CCNCC3)cc21 [Norfloxacin], the LC retention time is reported as 4.27 min.
For CCCCN(CC)C(=O)SCCC [Pebulate (Tillam)], the LC retention time was 12.1 min.
In the case of CCC(C(=O)O)C1CCC(C)C(C(C)C(O)C(C)C(=O)C(CC)C2OC3(C=CC(O)C4(CCC(C)(C5CCC(O)(CC)C(C)O5)O4)O3)C(C)CC2C)O1 (centres undefined) [Salinomycin], the LC retention time is reported as 15.9 min.
In the case of C=C(C)C1(O)OC(=O)C=C1OC (centres undefined) [Penicillic acid], the LC retention time is reported as 3.78 min.
CCCC1CC(C(=O)NC(C(C)O)C2OC(SC)C(O)C(O)C2O)N(C)C1 (centres undefined) [Lincomycin] showed an LC retention time of 3.56 min.
Compound Cc1onc(-c2c(Cl)cccc2Cl)c1C(=O)NC1C(=O)N2C1SC(C)(C)C2C(=O)O (centres undefined) [Dicloxacillin] has an LC retention time of 10.4 min.
For CCCCc1c(C)nc(NCC)nc1OS(=O)(=O)N(C)C [Bupirimate], the LC retention time was 11.2 min.
For CS(=O)(=O)c1ccc(C(O)C(CO)NC(=O)C(Cl)Cl)cc1 (centres undefined) [Thiamphenicol], the LC retention time was 3.6 min.
For CC(Oc1ccc(Oc2ncc(C(F)(F)F)cc2Cl)cc1)C(=O)O (centres undefined) [Haloxyfop], the LC retention time was 11.8 min.
For Cc1nc(N(C)C)nc(OC(=O)N(C)C)c1C [Pirimicarb], the LC retention time was 5.67 min.
Compound CCC(C)C1OC2(CCC1C)CC1CC(CC=C(C)C(OC3CC(OC)C(OC4CC(OC)C(O)C(C)O4)C(C)O3)C(C)C=CC=C3COC4C(O)C(C)=CC(C(=O)O1)C34O)O2 (centres undefined) [Ivermectin] has an LC retention time of 16.3 min.
CCCOC(=O)NCCCN(C)C [Propamocarb] showed an LC retention time of 2.28 min.
In the case of CC1Cc2c(Cl)cc(C(=O)O)c(O)c2C(=O)O1 (stereo not drawn) [Ochratoxin Alpha], the LC retention time is reported as 11.2 min.
With COP(=O)(OC)Oc1ccc(S(C)(=O)=O)c(C)c1 [Fenoxon sulfone] the LC retention time was 5.35 min.
For CCCN(CC)CC1COC2(CCC(C(C)(C)C)CC2)O1 (centres undefined) [Spiroxamine], the LC retention time was 10 min.
In the case of CC(C)(C)C(O)C(=Cc1ccc(Cl)cc1Cl)n1cncn1 (centres undefined) [Diniconazole], the LC retention time is reported as 12.2 min.
Work on CON(C)C(=O)Nc1ccc(Br)cc1 [Metobromuron] yielded an LC retention time of 8.53 min.
With CCOP(=S)(OCC)SCCS(=O)(=O)CC [Disulfoton-sulfone] the LC retention time was 8.76 min.
